Measured values from ChEMBL document CHEMBL1157548, “Mitochondrial biotransformation of omega-(phenoxy)alkanoic acids, 3-(phenoxy)acrylic acids, and omega-(1-methyl-1H-imidazol-2-ylthio)alkanoic acids: a prodrug strategy for targeting cytoprotective antioxidants to mitochondria” (Bioorg Med Chem, 2010).
Calls of active or inactive are those of the source. No cut-off for these calls is given here.

Columns and labels:
Cardiac muscle cell [1] = assay: Cytoprotective effect in rat cardiomyocytes under hypoxia-reoxygenation condition assessed as cell viability at 1 uM by trypan blue exclusion test; format: functional, cell-based
Cardiac muscle cell [2] = assay: Cytoprotective effect in rat cardiomyocytes under hypoxia-reoxygenation condition assessed as cell viability at 1 uM by trypan blue exclusion test in presence of etomoxir; format: functional, cell-based

## Cc1cccc(C)c1O/C=C/C(=O)O
Cardiac muscle cell [1]
  Activity: Active
Cardiac muscle cell [2]
  Activity: inactive

## Cn1ccnc1S
Cardiac muscle cell [1]
  Activity: inactive

## Cc1cccc(C)c1OCCC(=O)O
Cardiac muscle cell [1]
  Activity: Active
Cardiac muscle cell [2]
  Activity: inactive

## Cn1ccnc1SCCCCC(=O)O
Cardiac muscle cell [1]
  Activity: Active
Cardiac muscle cell [2]
  Activity: inactive

## Cn1ccnc1SCCC(=O)O
Cardiac muscle cell [1]
  Activity: Active
Cardiac muscle cell [2]
  Activity: inactive
